No end group written: not given here.
assay: Fluorescence ANTS/DPX vesicle leakage assay in POPC/POPG (3:1); settings: Table S7 series (PGLa-to-MSI mutants); ANTS/DPX, POPC/POPG (3:1) 100 nm vesicles, P/L about 1:160 per peptide, mixtures 1:1, 10 mM HEPES pH 7.5, 155 mM NaCl, 30 °C, 600 s, % of Triton-X-100 leakage, fluorescence, mean of n = 3
Description: The synergy was also investigated by a fluorescence ANTS/DPX leakage assay[24],[27],[30]. As described in the Methods section, leakage from POPC/POPG (3:1) vesicles was measured for 10 minutes after the addition of vesicles to a peptide solution. Leakage is expressed as percentage of the full leakage, which was obtained after addition of detergent. A synergy factor was defined to describe the enhancement of leakage of the mixture compared to the sum of the extent of leakage for each component. […] In general a synergy factor above 2 indicated synergy. […] In the leakage assay, this pore formation can be studied under more controlled conditions. Here we use two lipid compositions for the vesicles, which are mimicking bacterial membranes.
(§1) Leakage of small unilamellar vesicles induced by the peptides was studied using a standard fluorescence assay.
(§2) The appropriate lipids for each experiment were dissolved in CHCl3, together with 0.02 mol-% Rhodamine-PE (Rh-PE). […] This stock suspension was subjected to 10 freeze-thaw cycles and then frozen. Appropriate aliquots of the stock lipid suspension were unfrozen each day and extruded (41 times) through polycarbonate membranes with 100 nm pore size, and stored at room temperature overnight. The fluorophore and quencher outside the vesicles were removed by size exclusion chromatography using spin-columns (Pierce centrifuge column, 2 ml, Life Technologies GmbH, Darmstadt, Germany) filled with Sephacryl 100-HR (2 min, 1500 × g). For elution, a 10 mM HEPES buffer (pH 7.5) was used, containing 155 mM NaCl to balance the osmolarity. After extrusion and removal of the external dye and quencher, the lipid concentration usually decreases. Therefore, before each set of measurements a rhodamine spectrum was recorded to determine the actual concentration of lipids, which was referenced to a spectrum taken of vesicles made by sonification without any subsequent treatment.
(§3) Fluorescence experiments were performed on a FluoroMax2 spectrofluorimeter (HORIBA Jobin Yvon, Unterhaching, Germany) equipped with a thermostated sample holder and magnetic stirrer, using an excitation wavelength of 355 nm, an emission wavelength of 508 nm, and slit widths of 5 nm. The peptide solutions were placed in elution buffer in a 1 cm standard cuvette at 30 °C. 100 s after the start of the measurement lipid vesicles were added, and the intensity of the fluorescence at 508 nm was recorded. The leakage was measured during 600 s after addition of vesicles, and the measurement was terminated after addition of Triton-X-100 (0.25% v/v), which dissolved the vesicles, and yielded 100% leakage. To determine the background signal of the vesicles themselves, several blanks were recorded per measurement set. From the leakage values of the peptides alone and of the mixture of two peptides a synergy factor SF was calculated:3 SF=L(A+B)/[L(A)+L(B)] […] Measurements were repeated three times and average values and standard deviations calculated for the leakage and the synergy factors. An average SF ≥ 2 was taken to indicate synergy.

In the case of “KIAGKIAKIAGKIAKVALKAL-NH2 [PtM-a1, PGLa to MSI-103 mutant, segment A replaced]”, the “Leakage, mean value” is reported as 4.7%.

same assay, conditions: Table S11 series (MSI-to-PGLa mutants); ANTS/DPX, POPC/POPG (3:1) 100 nm vesicles, P/L about 1:160 per peptide, mixtures 1:1, 10 mM HEPES pH 7.5, 155 mM NaCl, 30 °C, 600 s, % of Triton-X-100 leakage, fluorescence, mean of n = 3

Point of comparison: “KIAGKAGAIAGKIAKIALKIA-NH2 (also: 15N-labeled Ala10) [MtP-a4, MSI-103 mutant with MtP-A3 mutations plus G18L]”, “Leakage, mean value” 2.5%. Against it:
- KIAGKAAKIAGKIAKIAGKIA-NH2 [MtP-I6A, MSI-103 to PGLa single mutant I6A] — lower, 1.6%
- KIAGKAGAIAGKIAKIAGKIA-NH2 [MtP-a3, MSI-103 triple mutant I6A, A7G, K8A] — lower, 0.9%
- KIAGKAGKIAGKIAKIAGKIA-NH2 (also: 15N-labeled Ala10) [MtP-I6A-A7G, MSI-103 double mutant I6A, A7G] — lower, 0.8%
- KIAGKIAAIAGKIAKIAGKIA-NH2 [MtP-K8A, MSI-103 to PGLa single mutant K8A] — lower, 1.7%
- KIAGKIGAIAGKIAKIAGKIA-NH2 (also: 15N-labeled Ala10) [MtP-K8A-A7G, MSI-103 double mutant K8A, A7G] — lower, 1.3%
- KIAGKIGKIAGKIAKIALKIA-NH2 (also: 15N-labeled Ala10) [MtP-A7G-G18L, MSI-103 double mutant A7G, G18L] — higher, 4.9%
- KIASKIGKIAGKIAKIAGKIA-NH2 (also: 15N-labeled Ala10) [MtP-G4S-A7G, MSI-103 double mutant G4S, A7G] — lower, 1.4%

same assay, conditions: Table S15 series (Gly mutants); ANTS/DPX, POPC/POPG (3:1) 100 nm vesicles, P/L about 1:160 per peptide, mixtures 1:1, 10 mM HEPES pH 7.5, 155 mM NaCl, 30 °C, 600 s, % of Triton-X-100 leakage, fluorescence, mean of n = 3

Point of comparison: “GMASKAGAIA IKIAKVALKAL-NH2 [PGLa-G11I, PGLa glycine mutant G11I]”, “Leakage, mean value” 11.0%. Against it:
- GMASKAAAIAGKIGKVALKAL-NH2 (also: 15N-labeled Ala10) [PGLa-GS1, PGLa glycine-shift mutant with GxxG motif] — lower, 1.9%
- GMASKAIAG A IKGAKVALKAL-NH2 [PGLa-GS2, PGLa glycine-shift mutant, GxxxG on opposite helix face] — lower, 2.0%

assay: Fluorescence ANTS/DPX vesicle leakage assay in POPE/POPG/TOCL (72:23:5); settings: Table S8 series (PGLa-to-MSI mutants), POPE/POPG/TOCL (72:23:5) 100 nm vesicles, P/L ≈ 1:30, mixtures 1:1, 10 mM HEPES pH 7.5, 155 mM NaCl, 30 °C, 600 s, % of Triton-X-100 leakage, mean of n = 3
Description: It could be argued that POPC/POPG (3:1) is not the most appropriate model system to describe a bacterial membrane, which rarely contains PC lipids. We therefore also performed leakage in another lipid system, POPE/POPG/TOCL (72:23:5), which is a good model of E. coli membranes[45],[69],[70]. […] For all of the other mutants discussed below, leakage was also studied both in POPC/POPG as well as POPE/POPG/TOCL, but since the results (synergy or no synergy) were in all cases the same, the latter data will not be presented in the text. All leakage data in POPE/POPG/TOCL (72:23:5) for charge mutants are summarized in Supplementary Table S4.
as §1, §2
as §3, with “SF=L(A+B)/[L(A)+L(B)] Here, L(A) is the leakage found with peptide A alone, L(B) is the leakage found with peptide B alone, and L(A + B) is the leakage found with the mixture of peptides A and B. In all cases the P/L was the same for both peptides, alone and in the mixture, so that in the mixture the total P/L was twice that of the individual peptide measurements.” for “SF=L(A+B)/[L(A)+L(B)]”

With “KIAGKIAKIAGKIAKVALKAL-NH2 [PtM-a1, PGLa to MSI-103 mutant, segment A replaced]” the “Leakage, mean value” was 18.6%.

same assay, conditions: Table S12 series (MSI-to-PGLa mutants), POPE/POPG/TOCL (72:23:5) 100 nm vesicles, P/L ≈ 1:30, mixtures 1:1, 10 mM HEPES pH 7.5, 155 mM NaCl, 30 °C, 600 s, % of Triton-X-100 leakage, mean of n = 3

Point of comparison: “KIAGKAGAIAGKIAKIAGKIA-NH2 [MtP-a3, MSI-103 triple mutant I6A, A7G, K8A]”, “Leakage, mean value” 0.9%. Against it:
- KIAGKAAKIAGKIAKIAGKIA-NH2 [MtP-I6A, MSI-103 to PGLa single mutant I6A] — higher, 4.8%
- KIAGKAGAIAGKIAKIALKIA-NH2 (also: 15N-labeled Ala10) [MtP-a4, MSI-103 mutant with MtP-A3 mutations plus G18L] — higher, 2.6%
- KIAGKIAAIAGKIAKIAGKIA-NH2 [MtP-K8A, MSI-103 to PGLa single mutant K8A] — higher, 1.8%

same assay, conditions: Table S16 series (Gly mutants), POPE/POPG/TOCL (72:23:5) 100 nm vesicles, P/L ≈ 1:30, mixtures 1:1, 10 mM HEPES pH 7.5, 155 mM NaCl, 30 °C, 600 s, % of Triton-X-100 leakage, mean of n = 3

Point of comparison: “GMASKAAAIAGKIGKVALKAL-NH2 (also: 15N-labeled Ala10) [PGLa-GS1, PGLa glycine-shift mutant with GxxG motif]”, “Leakage, mean value” 2.7%. Against it:
- GMASKAGAIA IKIAKVALKAL-NH2 [PGLa-G11I, PGLa glycine mutant G11I] — higher, 11.4%
- GMASKAIAG A IKGAKVALKAL-NH2 [PGLa-GS2, PGLa glycine-shift mutant, GxxxG on opposite helix face] — lower, 2.2%

— PMC5640672, “Molecular mechanism of synergy between the antimicrobial peptides PGLa and magainin 2” (Scientific Reports, 2017)
